{"source": "patent US7794934B2", "about": "“Predicting negative symptom change during drug treatment” (Centre for Addiction and Mental Health, priority 2006, dated 2010)", "key": {"[1]": {"test_system": "neurotoxicity induced by NMDA receptor antagonists", "conditions": "Farber 1993, 1996; Olney 1994; cited from earlier work"}, "[2]": {"test_system": "PCP-induced social withdrawal", "conditions": "rats (Corbett et al. 1995); cited from earlier work"}, "NMDA receptor": {"test_system": "NMDA receptor", "conditions": "at therapeutic levels (Lidsky et al. 1993); cited from earlier work"}, "[3]": {"test_system": "NMDA-receptor-mediated neurotransmission", "conditions": "Arvanov et al. 1997; cited from earlier work"}, "[4]": {"target": "glycine binding site associated with the NMDAR complex (Homo sapiens, UniProt Q05586)", "conditions": "cited from earlier work"}, "NMDA receptors": {"test_system": "NMDA receptors", "conditions": "Wang and Liang 1998; cited from earlier work"}, "schizophrenic subjects": {"test_system": "schizophrenic subjects", "experiment": "Negative symptom improvement (SADSneg subscale) over six months of clozapine treatment, by GRIN2B T5988C genotype", "type": "in vivo, human", "conditions": "after six months of clozapine treatment, baseline as covariate", "method": "Our sample consisted of 90 schizophrenic subjects treated with clozapine. The majority of the patients were Caucasian. The second most represented ethnicity was African American. The ratio of males to females was approximately 2.5:1. The overall response to clozapine treatment over six months was assessed using the Brief Psychiatric Rating Scale (BPRS) and the Schedule for Affective Disorders and Schizophrenia (SADS). The sample is composed of a group of patients from the Cleveland area (obtained from Dr. H. Y Meltzer, Case Western Reserve University), as part of a multisite coordinated clinical trial of clozapine response. Data on the specific assessment of negative symptom improvement in response to clozapine treatment were collected over a six month period (baseline minus 6 month score). Negative symptom improvement over a period of six months was assessed using the Brief Psychiatric Rating Scale subscale for negative symptoms (BPRSneg), and the Schedule for Affective Disorders and Schizophrenia subscale for negative symptoms (SADSneg).\nAnalysis of Covariance (ANCOVA) was performed in order to test the effect of genotype on negative symptom improvement as measured by the SADSneg subscale. The baseline score for the SADSneg, assessed before the clozapine treatment was started, was used as a covariate, in part to control for regression to the mean effects."}, "[5]": {"test_system": "patients with schizophrenia", "conditions": "cited from earlier work"}, "[6]": {"conditions": "added to conventional antipsychotics"}}, "note": "Like-named read-outs stand apart in the source and are kept apart here.", "data": [{"smiles": "CSc1ccc2c(c1)N(CCC1CCCCN1C)c1ccccc1S2", "note": "(stereo not shown) [thioridazine]", "values": [{"measurement": "prevention of neurotoxicity induced by NMDA receptor antagonists", "setting": "[1]", "result": "intermediate effectiveness"}]}, {"smiles": "O=C(CCCN1CCC(O)(c2ccc(Cl)cc2)CC1)c1ccc(F)cc1", "note": "[haloperidol]", "values": [{"measurement": "reversal of PCP-induced social withdrawal", "setting": "[2]", "result": "not"}, {"measurement": "prevention of neurotoxicity induced by NMDA receptor antagonists", "setting": "[1]", "result": "intermediate effectiveness"}, {"measurement": "displacement of the ligand [3H]MK801 from the NMDA receptor", "setting": "NMDA receptor", "result": "not"}, {"measurement": "enhancement of NMDA-receptor-mediated neurotransmission", "setting": "[3]", "result": "not"}, {"measurement": "mode of action at the glycine binding site associated with the NMDAR complex", "setting": "[4]; Lidsky et al. 1997", "result": "partial agonist"}, {"measurement": "effect on NMDA receptor activity", "setting": "[4]; in the absence of glycine (Lidsky et al. 1997)", "result": "augmented"}]}, {"smiles": "CN1CCN(C2=Nc3cc(F)ccc3Cc3ccccc32)CC1", "note": "[fluperlapine]", "values": [{"measurement": "prevention of neurotoxicity induced by NMDA receptor antagonists", "setting": "[1]", "result": "strongly prevented"}]}, {"smiles": "COc1cccc([C@H](O)C2CCN(CCc3ccc(F)cc3)CC2)c1OC", "note": "[M100907]", "values": [{"measurement": "prevention of PCP-induced blockade of NMDA receptors", "setting": "NMDA receptors", "result": "prevented"}]}, {"smiles": "CN1CCN(C2=Nc3cc(Cl)ccc3Nc3ccccc32)CC1", "note": "[clozapine]", "values": [{"measurement": "SADSneg mean (mean converted change score, baseline minus 6 month score)", "setting": "schizophrenic subjects; GRIN2B 5988 C C genotype", "result": 1.3}, {"measurement": "SADSneg mean (mean converted change score, baseline minus 6 month score)", "setting": "schizophrenic subjects; GRIN2B 5988 C T genotype", "result": 1.26}, {"measurement": "SADSneg mean (mean converted change score, baseline minus 6 month score)", "setting": "schizophrenic subjects; GRIN2B 5988 T T genotype", "result": 1.87}]}, {"smiles": "Cc1nc2n(c(=O)c1CCN1CCC(c3noc4cc(F)ccc34)CC1)CCCC2", "note": "[risperidone]", "values": [{"measurement": "reversal of PCP-induced social withdrawal", "setting": "[2]", "result": "not"}]}, {"smiles": "N[C@@H]1CONC1=O", "note": "[D-cycloserine]", "values": [{"measurement": "effect on negative symptoms", "setting": "[5]; added to clozapine", "result": "worsening of negative symptoms"}, {"measurement": "effect on negative symptoms", "setting": "[5]; [6]", "result": "significantly improved"}, {"measurement": "performance on a cognitive battery", "setting": "[5]; [6]", "result": "did not improve"}]}]}
